US10106544B2, “1,2-dihydro-3H-pyrrolo[1,2-C]imidazol-3-one derivatives and their use as antibacterial agents” (priority 2014, dated 2018)
Converted amounts (≈) assume the structure as drawn. Read-outs that look alike come from different tables or passages of the source.

Columns and labels:
Type in all cases: cell-based
E. coli ATCC25922 = assay: Bacterial growth minimal inhibitory concentration (microdilution, cation-adjusted Mueller-Hinton Broth); details: quinolone-sensitive strain; for MIC: Escherichia coli, ATCC25922, read-out: MIC for E. coli ATCC25922
Procedure, shortened: (§1)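 Broth microdilution in cation-adjusted Mueller-Hinton Broth per CLSI M7-A7, MIC in mg/L. K. pneumoniae A-651 is multiply resistant, including to quinolones. E. coli ATCC25922 and P. aeruginosa ATCC27853 are quinolone-sensitive.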

K. pneumoniae A-651 = assay: as above; details: multiply-resistant strain (in particular quinolone-resistant); for MIC: Klebsiella pneumoniae, A651, read-out: MIC for K. Pneumoniae A-651
Procedure, shortened: as §1

P. aeruginosa ATCC27853 = assay: as above; details: for MIC: Pseudomonas aeruginosa, ATCC27853, quinolone-sensitive strain, read-out: MIC for P. aeruginosa ATCC27853; for MIC for P. aeruginosa ATCC27853: quinolone-sensitive strain
Procedure, shortened: as §1

wild-type E. coli A-1261 = assay: MIC against wild-type E. coli A-1261 with or without alkaline phosphatase or esterase; details: Escherichia coli
Protocol: Minimal Inhibitory Concentrations (MICs; mg/L) were determined in cation-adjusted Mueller-Hinton Broth by a microdilution method following the description given in “Methods for Dilution Antimicrobial Susceptibility Tests for Bacteria that Grow Aerobically”, Approved standard, 7th ed., a Clinical and Laboratory Standards Institute (CLSI) Document M7-A7, Wayne, Pa., USA (2006).
The compounds of Examples 37, 50, 51 and 74 were tested against wild-type E. coli A-1261 in the absence of alkaline phosphatase or esterase, in the presence of an alkaline phosphatase and in the presence of an esterase. The corresponding antibacterial test results are given in Table 2 hereafter (MICs in mg/L).

[1] = read-out: MIC for E. coli A-1261 In the absence of alkaline phosphatase or esterase
[2] = read-out: MIC for E. coli A-1261 In the presence of an alkaline phosphatase (2 i.U./mL)
[3] = read-out: MIC for E. coli A-1261 In the presence of an esterase (10 i.U./mL)

SMILES | MIC (E. coli ATCC25922) [µg/mL] | MIC (K. pneumoniae A-651) [µg/mL] | MIC (P. aeruginosa ATCC27853) [µg/mL] | MIC (wild-type E. coli A-1261; [1]) [µg/mL] | MIC (wild-type E. coli A-1261; [2]) [µg/mL] | MIC (wild-type E. coli A-1261; [3]) [µg/mL] | MIC for E. coli ATCC25922 (E. coli ATCC25922) [µg/mL] | MIC for K. Pneumoniae A-651 (K. pneumoniae A-651) [µg/mL] | MIC for P. aeruginosa ATCC27853 (P. aeruginosa ATCC27853) [µg/mL]
CN(C)CC(=O)OCC1(c2ccc(C#Cc3cc4n(c3)C(=O)N(CC[C@](C)(C(=O)NO)S(C)(=O)=O)C4)cc2)CC1.Cl [Example 37, (R)-(1-(4-((2-(4-(hydroxyamino)-3-methyl-3-(methylsulfonyl)-4-oxobutyl)-3-oxo-2,3-dihydro-1H-pyrrolo[1,2-c]imidazol-6-yl)ethynyl)phenyl)cyclopropyl)methyl dimethylglycinate hydrochloride] | 0.5 | 1 | 4 | 0.25 | 0.125 | 0.25 |  |  | 
CN(C)CC(=O)OCC1(C#CC#Cc2cc3n(c2)C(=O)N(CC[C@](C)(C(=O)NO)S(C)(=O)=O)C3)CC1.Cl [Example 50, (R)-(1-((2-(4-(hydroxyamino)-3-methyl-3-(methylsulfonyl)-4-oxobutyl)-3-oxo-2,3-dihydro-1H-pyrrolo[1,2-c]imidazol-6-yl)buta-1,3-diyn-1-yl)cyclopropyl)methyl dimethylglycinate hydrochloride] |  |  |  | 2 | 1 | 0.5 |  |  | 
C[C@@](CCN1Cc2cc(C#CC#CC3(COP(=O)(O)O)CC3)cn2C1=O)(C(=O)NO)S(C)(=O)=O [Example 51, (R)-(1-((2-(4-(hydroxyamino)-3-methyl-3-(methylsulfonyl)-4-oxobutyl)-3-oxo-2,3-dihydro-1H-pyrrolo[1,2-c]imidazol-6-yl)buta-1,3-diyn-1-yl)cyclopropyl)methyl dihydrogen phosphate] |  |  |  | > 16 | 0.5 | 16 |  |  | 
C[C@@](CCN1Cc2cc(C#CC#CC[C@]3(O)C[C@@H](CO)C3)cn2C1=O)(C(=O)NO)S(C)(=O)=O [Example 73, (R)-N-hydroxy-4-(6-(5-((1s,3R)-1-hydroxy-3-(hydroxymethyl)cyclobutyl)penta-1,3-diyn-1-yl)-3-oxo-1H-pyrrolo[1,2-c]imidazol-2(3H)-yl)-2-methyl-2-(methylsulfonyl)butanamide] |  |  |  |  |  |  | 8 | 16 | 4
C[C@@](CCN1Cc2cc(C#CC#CC3(NC(=O)OCOP(=O)(O)O)CC3)cn2C1=O)(C(=O)NO)S(C)(=O)=O [Example 74, (phosphonooxy)methyl (R)-(1-((2-(4-(hydroxyamino)-3-methyl-3-(methylsulfonyl)-4-oxobutyl)-3-oxo-2,3-dihydro-1H-pyrrolo[1,2-c]imidazol-6-yl)buta-1,3-diyn-1-yl)cyclopropyl)carbamate] |  |  |  | 4 (≈ 6.99 µM) | 0.25 | 4 |  |  | 
C[C@@](CCN1Cc2cc(C#CC#CC3(COC(=O)OCOP(=O)(O)O)CC3)cn2C1=O)(C(=O)NO)S(C)(=O)=O [Example 75, (R)-(1-((2-(4-(hydroxyamino)-3-methyl-3-(methylsulfonyl)-4-oxobutyl)-3-oxo-2,3-dihydro-1H-pyrrolo[1,2-c]imidazol-6-yl)buta-1,3-diyn-1-yl)cyclopropyl)methyl((phosphonooxy)methyl)carbonate] |  |  |  |  |  |  | 1 | 2 | 2
CC(C)(O)c1ncc(C#Cc2cc3n(c2)C(=O)N(CC[C@](C)(C(=O)NO)S(C)(=O)=O)C3)s1 [Example 76, (R)-N-hydroxy-4-(6-((2-(2-hydroxypropan-2-yl)thiazol-5-yl)ethynyl)-3-oxo-1H-pyrrolo[1,2-c]imidazol-2(3H)-yl)-2-methyl-2-(methylsulfonyl)butanamide] | 1 (≈ 2.08 µM) | 2 (≈ 4.16 µM) | 2 (≈ 4.16 µM) |  |  |  |  |  | 
C[C@@](CCN1Cc2cc(C#Cc3ccc(CN4CCC(N)CC4)cc3)cn2C1=O)(C(=O)NO)S(C)(=O)=O.Cl.Cl [Example 77, (R)-4-(6-((4-((4-aminopiperidin-1-yl)methyl)phenyl)ethynyl)-3-oxo-1H-pyrrolo[1,2-c]imidazol-2(3H)-yl)-N-hydroxy-2-methyl-2-(methylsulfonyl)butanamide dihydrochloride] | 8 | 16 | 2 |  |  |  |  |  | 
C[C@@](CCN1Cc2cc(C#Cc3ccc(CN4CCC(O)CC4)cc3)cn2C1=O)(C(=O)NO)S(C)(=O)=O [Example 80, (R)-N-hydroxy-4-(6-((4-((4-hydroxypiperidin-1-yl)methyl)phenyl)ethynyl)-3-oxo-1H-pyrrolo[1,2-c]imidazol-2(3H)-yl)-2-methyl-2-(methylsulfonyl)butanamide] | 1 (≈ 1.89 µM) | 2 (≈ 3.78 µM) | 1 (≈ 1.89 µM) |  |  |  |  |  | 
C[C@@](CCN1Cc2cc(C#Cc3ccc(N4CCC(N)CC4)cc3)cn2C1=O)(C(=O)NO)S(C)(=O)=O [Example 81, (R)-4-(6-((4-(4-aminopiperidin-1-yl)phenyl)ethynyl)-3-oxo-1H-pyrrolo[1,2-c]imidazol-2(3H)-yl)-N-hydroxy-2-methyl-2-(methylsulfonyl)butanamide] | 8 (≈ 15.6 µM) | 16 (≈ 31.2 µM) | 2 (≈ 3.89 µM) |  |  |  |  |  | 
C[C@@](CCN1Cc2cc(C#Cc3ccc(CNS(C)(=O)=O)cc3)cn2C1=O)(C(=O)NO)S(C)(=O)=O [Example 82, (R)-N-hydroxy-2-methyl-4-(6-((4-(methylsulfonamidomethyl)phenyl)ethynyl)-3-oxo-1H-pyrrolo[1,2-c]imidazol-2(3H)-yl)-2-(methylsulfonyl)butanamide] | 0.5 (≈ 0.957 µM) | 1 (≈ 1.91 µM) | 1 (≈ 1.91 µM) |  |  |  |  |  | 
C[C@@](CCN1Cc2cc(C#CC#CC3CN(C4COC4)C3)cn2C1=O)(C(=O)NO)S(C)(=O)=O [Example 83, (R)-N-hydroxy-2-methyl-2-(methylsulfonyl)-4-(6-((1-(oxetan-3-yl)azetidin-3-yl)buta-1,3-diyn-1-yl)-3-oxo-1H-pyrrolo[1,2-c]imidazol-2(3H)-yl)butanamide] | 0.5 (≈ 1.05 µM) | 0.5 (≈ 1.05 µM) | 1 (≈ 2.11 µM) |  |  |  |  |  | 
